What was measured:
CCL-1 = assay: MTT cell viability assay, normal fibroblasts CCL-1; assay type: cell-based, murine; conditions: 72 h, non-malignant fibroblasts, ± standard deviation
Protocol: (§1) Cell viability was determined using the MTT colorimetric assay. […] Statistical significance was determined at p ≤ 0.05.

K-562 = assay: MTT cell viability assay, K-562; assay type: cell-based, human; conditions: 72 h, ± standard deviation
Protocol: as §1

LAMA-84 = assay: MTT cell viability assay, LAMA-84; assay type: cell-based, human; conditions: 72 h, ± standard deviation
Protocol: as §1

BV-173 = assay: MTT cell viability assay, BV-173; assay type: cell-based, human; conditions: 72 h, ± standard deviation
Protocol: as §1

AR-230 = assay: MTT cell viability assay, AR-230; assay type: cell-based, human; conditions: 72 h, ± standard deviation
Protocol: as §1

[1] = MTT cell viability assay, normal fibroblasts CCL-1; assay type: cell-based, murine; conditions: mouse, CCL-1 normal fibroblast cells, non-malignant fibroblasts, ± standard deviation
Protocol: as §1

MDA-MB-231 = system: MDA-MB-231; parameters: method as in doi:10.2533/chimia.2007.716; conditions: hormone-independent breast cancer cells; cited from earlier work

| SMILES | IC50 (K-562) | IC50 (CCL-1) | IC50 (LAMA-84) | IC50 (BV-173) | IC50 (AR-230) | IC50 at 72 h [1] | IC50 (MDA-MB-231) |
| --- | --- | --- | --- | --- | --- | --- | --- |
| Cc1ccc(NC(=O)c2ccc(CN3CCN(C)CC3)cc2)cc1Nc1nccc(-[c-]2cccc2)n1.[Fe+2].c1cc[cH-]c1 [Compound 6, N-(4-Methyl-3-((4-ferrocenylpyrimidin-2-yl)amino)phenyl)-4-((4-methylpiperazin-1-yl)methyl)benzamide] | 29.9 ± 3.1 µM | 55.7 ± 9.5 µM | 25.4 ± 2.9 µM | 33.6 ± 2.1 µM | 5.9 ± 0.2 µM |  |  |
| Cc1ccc(NC(=O)c2ccc(CN3CCN(C)CC3)cc2)cc1Nc1nccc(-c2cccnc2)n1 [imatinib, reference compound] |  |  |  |  |  | > 200 µM |  |
| CCC(=C(c1ccc(O)cc1)c1ccc(OCCCN(C)C)cc1)[c-]1cccc1.[Fe+2].c1cc[cH-]c1 [Hydroxy-ferrocifen] |  |  |  |  |  |  | 0.5 µM |
| CC/C(=C(\c1ccc(O)cc1)c1ccc(OCCN(C)C)cc1)c1ccccc1 [Hydroxy-tamoxifen] |  |  |  |  |  |  | 30 µM |

The next lines start with results.

| IC50 (K-562) | SMILES | IC50 (CCL-1) | IC50 (LAMA-84) | IC50 (BV-173) | IC50 (AR-230) | IC50 at 72 h [1] | IC50 (MDA-MB-231) |
| --- | --- | --- | --- | --- | --- | --- | --- |
| > 200 µM | Cc1ccc(C(=O)N[c-]2cccc2)cc1Nc1nccc(-c2cccnc2)n1.[Fe+2].c1cc[cH-]c1 [Compound 18, N-Ferrocenyl-4-methyl-3-((4-(pyridin-3-yl)pyrimidin-2-yl)amino)benzamide] | 60.2 ± 8.3 µM | 26.8 ± 3.2 µM | 15.1 ± 2.9 µM | 5.1 ± 0.9 µM |  |  |
| > 200 µM | Cc1ccc(NC(=O)[c-]2cccc2)cc1Nc1nccc(-c2cccnc2)n1.[Fe+2].c1cc[cH-]c1 [Compound 14, N-(4-Methyl-3-((4-(pyridin-3-yl)pyrimidin-2-yl)amino)phenyl)ferrocenecarboxamide] | > 200 µM | 27.3 ± 1.8 µM | 17.9 ± 3.1 µM | 5.1 ± 1.3 µM |  |  |
| 25.9 ± 2.9 µM | Cc1cn(-c2cc(NC(=O)c3ccc(C)c(Nc4nccc(-[c-]5cccc5)n4)c3)cc(C(F)(F)F)c2)cn1.[Fe+2].c1cc[cH-]c1 [Compound 9, 4-Methyl-N-(3-(4-methyl-1H-imidazol-1-yl)-5-(trifluoromethyl)phenyl)-3-((4-ferrocenylpyrimidin-2-yl)amino)benzamide] | > 200 µM | 25.4 ± 2.4 µM | 33.6 ± 2.3 µM | 144 ± 10.6 µM |  |  |

— article PMC12348835, “Design, Docking Analysis, and Structure–Activity Relationship of Ferrocene-Modified Tyrosine Kinase Inhibitors: Insights into BCR-ABL Interactions” (Molecules, 2025)
